Where two headings read alike, the source gives them in different places.
How the values were obtained:
plasma protein = experiment: Determination of plasma protein binding (rapid equilibrium dialysis); assay type: in vitro ADME; details: 4 hours at 37° C.
Text: Determination of Plasma Protein Binding
The pharmacokinetic and pharmacodynamic properties of chemicals/drugs are largely a function of the reversible binding of chemicals to plasma or serum proteins. Generally, only the unbound or “free fraction” of a drug is available for diffusion or transport across cell membranes, and for interaction with a pharmacological/toxicological target. Consequently, the extent of the plasma protein binding (PPB) of a compound influences its action as well as its distribution and elimination.
The determination of plasma protein binding (PPB) of a compound is enabled by equilibrium dialysis, an accepted and standard method for reliable estimation of the non-bound drug fraction in plasma. RED (Rapid Equilibrium Dialysis) device insert is made of two side-by-side chambers separated by an O-ring-sealed vertical cylinder of dialysis membrane (MWCO˜8,000). Plasma containing drug (at 5 μM or blood concentrations otherwise corresponding to efficacious doses, if known) is added to one chamber while buffer is added to the second. After 4 hours incubation at 37° C. under shaking, an aliquot is removed from each chamber and analyzed by a LC-MS/MS procedure enables the determination of both free and bound drug.
The percentages provided in Table 4 represent for the compounds of the invention the bound drug fraction to the plasma protein. The “free fraction” may be calculated as 100%−% rPPB (i.e. the complementary percentage of that disclosed in Table 4, corresponding to the drug concentration that is unbound and therefore available to engage biological target and elicit pharmacological activity).

hERG channel = hERG channel (Homo sapiens (Human), UniProt Q12809); experiment: hERG inhibition assay (manual patch-clamp, HEK 293 cells); assay type: cell-based; details: HEK 293 cells stably transfected with hERG, read-out: CardioSafety (hERG IC50)
Sequence of hERG channel (Q12809 whole entry): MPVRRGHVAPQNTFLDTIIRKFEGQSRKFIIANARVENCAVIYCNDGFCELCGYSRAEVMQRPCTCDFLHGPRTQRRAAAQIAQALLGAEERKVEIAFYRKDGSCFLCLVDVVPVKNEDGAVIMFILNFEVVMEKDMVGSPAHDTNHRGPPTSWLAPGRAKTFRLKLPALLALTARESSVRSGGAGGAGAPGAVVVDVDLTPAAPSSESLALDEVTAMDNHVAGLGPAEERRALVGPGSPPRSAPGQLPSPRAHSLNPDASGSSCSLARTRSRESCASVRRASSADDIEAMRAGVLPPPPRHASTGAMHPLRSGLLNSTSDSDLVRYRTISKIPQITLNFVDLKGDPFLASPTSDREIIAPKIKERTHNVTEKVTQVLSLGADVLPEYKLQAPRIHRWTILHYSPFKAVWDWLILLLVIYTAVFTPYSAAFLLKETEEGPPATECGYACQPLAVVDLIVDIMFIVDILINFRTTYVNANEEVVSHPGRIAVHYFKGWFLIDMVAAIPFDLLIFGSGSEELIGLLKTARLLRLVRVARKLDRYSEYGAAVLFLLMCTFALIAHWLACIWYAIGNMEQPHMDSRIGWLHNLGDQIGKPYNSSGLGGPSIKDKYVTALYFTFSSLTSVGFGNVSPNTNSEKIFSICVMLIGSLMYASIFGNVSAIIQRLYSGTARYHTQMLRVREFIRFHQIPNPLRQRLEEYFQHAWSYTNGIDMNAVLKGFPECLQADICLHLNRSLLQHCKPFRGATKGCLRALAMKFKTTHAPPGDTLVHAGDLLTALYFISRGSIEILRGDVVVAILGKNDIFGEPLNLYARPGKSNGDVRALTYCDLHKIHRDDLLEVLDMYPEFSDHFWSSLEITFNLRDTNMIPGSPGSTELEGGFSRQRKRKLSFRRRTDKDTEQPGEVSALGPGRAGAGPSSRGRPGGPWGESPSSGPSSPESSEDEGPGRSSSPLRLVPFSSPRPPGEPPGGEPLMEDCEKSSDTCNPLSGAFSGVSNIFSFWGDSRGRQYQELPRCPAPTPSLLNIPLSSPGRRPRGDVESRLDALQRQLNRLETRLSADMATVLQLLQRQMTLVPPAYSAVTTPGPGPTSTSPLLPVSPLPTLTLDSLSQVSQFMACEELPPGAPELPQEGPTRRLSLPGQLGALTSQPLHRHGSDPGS
Text: The human ether-a-go-go related gene (hERG) encodes the inward rectifying voltage gated potassium channel in the heart (IKr) which is involved in cardiac repolarisation. […] IKr current inhibition accounts for the vast majority of known cases of drug-induced QT-prolongation. A number of drugs have been withdrawn from late stage clinical trials due to these cardiotoxic effects, therefore it is important to identify inhibitors early in drug discovery.
The hERG inhibition study aims at quantifying the in vitro effects of compounds of the invention on the potassium-selective IKr current generated in normoxic conditions in stably transfected HEK 293 cells with the human ether-a-go-go-related gene (hERG).
Whole-cell currents (acquisition by manual patch-clamp) elicited during a voltage pulse were recorded in baseline conditions and following application of tested compounds (5 minutes of exposure). The concentrations of tested compounds (0.3 μM; 3 μM; 10 μM; 30 μM) reflect a range believed to exceed the concentrations at expected efficacy doses in preclinical models. […]
The current density recorded were normalized against the baseline conditions and corrected for solvent effect and time-dependent current run-down using experimental design in test compound free conditions. […]

human NK-2 receptor = human NK-2 receptor (Homo sapiens (Human), UniProt P21452); experiment: Selectivity binding assay, human NK-2 ([125I]-Neurokinin A); details: CHO cell membranes; 0.1 nM [125I]-Neurokinin A; read-out: hNK-2 (Ki)
Sequence of human NK-2 receptor (P21452 whole entry): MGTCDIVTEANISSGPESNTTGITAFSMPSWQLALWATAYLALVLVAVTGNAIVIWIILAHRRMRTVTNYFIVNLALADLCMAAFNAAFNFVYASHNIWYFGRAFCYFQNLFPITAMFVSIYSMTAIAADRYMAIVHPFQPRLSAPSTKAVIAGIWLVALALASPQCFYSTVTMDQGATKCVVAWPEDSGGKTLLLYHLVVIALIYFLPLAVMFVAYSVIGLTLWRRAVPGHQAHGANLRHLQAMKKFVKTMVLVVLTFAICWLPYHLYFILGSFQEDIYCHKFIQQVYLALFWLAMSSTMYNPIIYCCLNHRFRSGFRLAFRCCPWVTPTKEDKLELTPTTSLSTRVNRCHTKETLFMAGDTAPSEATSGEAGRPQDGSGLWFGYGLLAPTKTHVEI
Procedure: Selectivity of the compounds of the invention was determined over the other human NK receptors, namely NK-1 and NK-2 receptors.
The affinity of compounds of the invention for the NK-2 receptor was evaluated in CHO recombinant cells which express the human NK-2 receptor. Membrane suspensions were prepared from these cells. The following radioligand [^125I]-Neurokinin A (PerkinElmer Cat#NEX252) was used in this assay. Binding assays were performed in a 25 mM HEPES/1 mM CaCl2/5 mM MgCl2/0.5% BSA/10 μg/ml saponin, at pH 7.4. Binding assays consisted of 25 μl of membrane suspension (approximately 3.75 μg of protein/well in a 96 well plate), 50 μl of compound or reference ligand (Neurokinin A) at increasing concentrations (diluted in assay buffer) and 0.1 nM [^125I]-Neurokinin A. The plate was incubated 60 min at 25° C. in a water bath and then filtered over GF/C filters (Perkin Elmer, 6005174, presoaked in assay buffer without saponine for 2 h at room temperature) with a Filtration unit (Perkin Elmer). The radioactivity retained on the filters was measured by using the TopCount-NXT reader (Packard). Competition curves were obtained for compounds of the invention and the concentrations of compounds which displaced 50% of bound radioligand (IC50) were determined and then apparent inhibition constant Ki values were calculated by the following equation: Ki=IC50/(1+[L]/KD) where [L] is the concentration of free radioligand and KD is its dissociation constant at the receptor, derived from saturation binding experiments (Cheng and Prusoff, 1973).

human NK-3 receptor = human NK-3 receptor (Homo sapiens (Human), UniProt P29371); experiment: 3H-SB222200 binding competition assay with human NK-3 receptor
Sequence of human NK-3 receptor (P29371 whole entry): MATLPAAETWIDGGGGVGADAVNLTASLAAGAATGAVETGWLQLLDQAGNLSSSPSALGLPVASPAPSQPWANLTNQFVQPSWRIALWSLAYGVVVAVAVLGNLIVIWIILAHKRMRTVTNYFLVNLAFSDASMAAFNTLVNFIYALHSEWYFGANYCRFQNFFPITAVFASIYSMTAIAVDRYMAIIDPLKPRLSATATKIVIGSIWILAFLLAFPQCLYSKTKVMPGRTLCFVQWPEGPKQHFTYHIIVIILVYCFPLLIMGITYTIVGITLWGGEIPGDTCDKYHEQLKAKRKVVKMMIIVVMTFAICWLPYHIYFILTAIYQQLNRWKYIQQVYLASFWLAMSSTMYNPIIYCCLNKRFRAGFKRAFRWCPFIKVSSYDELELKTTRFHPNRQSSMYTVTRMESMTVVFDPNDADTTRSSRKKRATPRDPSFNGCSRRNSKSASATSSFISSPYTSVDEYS
Procedure: The affinity of compounds of the invention for the human NK-3 receptor was determined by measuring the ability of compounds of the invention to competitively and reversibly displace a well-characterized NK-3 radioligand in a concentration-dependent manner.
^3H-SB222200 Binding Competition Assay with Human NK-3 Receptor
The ability of compounds of the invention to inhibit the binding of the NK-3 receptor selective antagonist ^3H-SB222200 was assessed by an in vitro radioligand binding assay. Membranes were prepared from Chinese hamster ovary recombinant cells stably expressing the human NK-3 receptor. The membranes were incubated with 5 nM ^3H-SB222200 (ARC) in a HEPES 25 mM/NaCl 0.1M/CaCl2 1 mM/MgCl2 5 mM/BSA 0.5%/Saponin 10 μg/ml buffer at pH 7.4 and various concentrations of compounds of the invention. The amount of ^3H-SB222200 bound to the receptor was determined after filtration by the quantification of membrane associated radioactivity using the TopCount-NXT reader (Packard).

[1] = CHO cell membranes, 5 nM 3H-SB222200, Table 2, read-out: Competitive binding assay with human NK-3 receptor hNK-3 (Ki)
[2] = Table 3 (selectivity table), read-out: hNK-3 (Ki)

With `C[C@@H]1c2nnc(-c3csc(C(F)(F)F)n3)n2CCN1C(=O)c1ccc(F)cc1` [Compound 3, (R)-(4-fluorophenyl)(8-methyl-3-(2-(trifluoromethyl)thiazol-4-yl)-5,6-dihydro-[1,2,4]triazolo[4,3-a]pyrazin-7(8H)-yl)methanone] the “Exposure (% rPPB), bound drug fraction to the plasma protein” value (plasma protein) was 50%, the IC50 (hERG channel) was 70 µM and the Ki (human NK-2 receptor) was 6.6 µM. The Ki (human NK-3 receptor; [1]) was 0.022 µM and the Ki (human NK-3 receptor; [2]) was 0.022 µM.

With `Cc1ccc(-c2nnc3n2CCN(C(=O)c2ccc(F)cc2)[C@@H]3C)o1` [Compound 1, (R)-(4-fluorophenyl)(8-methyl-3-(5-methylfuran-2-yl)-5,6-dihydro-[1,2,4]triazolo[4,3-a]pyrazin-7(8H)-yl)methanone] the “Exposure (% rPPB), bound drug fraction to the plasma protein” value (plasma protein) was 28%, the IC50 (hERG channel) was 31 µM and the Ki (human NK-2 receptor) was 52 µM. It also gave a Ki (human NK-3 receptor; [1]) of 0.048 µM and a Ki (human NK-3 receptor; [2]) of 0.048 µM.

— US9840508B2, “N-acyl-(3-substituted)-(8-methyl)-5,6-dihydro-[1,2,4]triazolo[4,3-a] pyrazines as selective NK-3 receptor antagonists, pharmaceutical composition, methods for use in NK-3 receptor-mediated disorders” (EUROSCREEN SA, priority 2013, dated 2017)
